Test results from ChEMBL document CHEMBL1201862, “PubChem BioAssay data set” (2004).
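All cell lines were grown in 96-well plates and treated with compound for 48 hours. Here, GI50 denotes the concentration required for 50% inhibition of growth.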 Active and inactive are the calls of the source. Rule as the data show it: active = GI50 up to about 1.1 µM and inactive = higher.

Tests used:
Assay in all cases: NCI anticancer screen, dose series, 48 h
[1] = tested on: PC-3
[2] = tested on: SF-539
[3] = tested on: Malme-3M
[4] = tested on: TK-10
[5] = tested on: HL-60
[6] = tested on: OVCAR-3
[7] = tested on: DU-145
[8] = tested on: CCRF-CEM
[9] = tested on: SK-MEL-28
[10] = tested on: EKVX
[11] = tested on: MCF7
[12] = tested on: OVCAR-8
[13] = tested on: U-251
[14] = tested on: MDA-N
[15] = tested on: KM12
[16] = tested on: OVCAR-4
[17] = tested on: T47D
[18] = tested on: HCC 2998
[19] = tested on: ACHN
[20] = tested on: SR

Measured: GI50

OC(c1ccc(F)cc1)(c1ccc(F)cc1)C1CC1
inactive: [1] 20 µM | [2] 33.3 µM | [3] 23.9 µM | [4] 30.7 µM | [5] 21.3 µM | [6] 32.5 µM | [7] 49.9 µM | [8] 24.8 µM | [9] 30 µM | [10] 29.2 µM | [11] 35.7 µM | [12] 37.2 µM | [13] 24 µM | [14] 19.4 µM | [15] 26.7 µM | [16] 26.2 µM | [17] 38 µM | [18] 20.5 µM | [19] 30.1 µM

Cc1[nH]n(-c2nc3c(c(=O)[nH]2)CCC3)c(=O)c1CCO
inactive: [1] > 100 µM | [2] > 100 µM | [3] > 100 µM | [4] > 100 µM | [5] > 100 µM | [6] > 100 µM | [7] > 100 µM | [8] > 100 µM | [9] > 100 µM | [10] > 100 µM | [11] > 100 µM | [12] > 100 µM | [13] > 100 µM | [14] > 100 µM | [15] > 100 µM | [16] > 100 µM | [17] > 100 µM | [18] > 100 µM | [19] > 100 µM

O=C(C=P(c1ccccc1)(c1ccccc1)c1ccccc1)c1ccc(-c2cccs2)cc1
inactive: [1] 4.12 µM | [2] 3.97 µM | [3] 4.46 µM | [4] 3.08 µM | [5] 2.11 µM | [6] 2.9 µM | [7] 8.73 µM | [8] 4.56 µM | [9] 3.41 µM | [10] 2.61 µM | [11] 3.41 µM | [12] 4.86 µM | [13] 3.85 µM | [14] 3.22 µM | [15] 4.13 µM | [16] 2.36 µM | [17] 2.33 µM | [18] 2.83 µM | [19] 3.73 µM

CN1CCc2nc(N)nc(-c3nc(N)nc4c3CN(C)CC4)c2C1
inactive: [1] > 100 µM | [2] > 100 µM | [3] > 100 µM | [4] > 100 µM | [5] > 100 µM | [6] > 100 µM | [7] > 100 µM | [20] 33 µM | [9] > 100 µM | [10] > 100 µM | [11] > 100 µM | [12] > 100 µM | [13] > 100 µM | [14] > 100 µM | [15] > 100 µM | [16] > 100 µM | [17] > 100 µM | [19] > 100 µM

Cc1cnc(-n2c(C)nc3cc(Cl)ccc3c2=O)s1
inactive: [1] 27.9 µM | [2] 20.7 µM | [3] 67.9 µM | [4] 43.1 µM | [5] 26 µM | [6] 45.6 µM | [7] 25.6 µM | [8] 31.5 µM | [9] 49.7 µM | [10] 11.1 µM | [11] 17.9 µM | [12] 45.7 µM | [13] 30.5 µM | [14] 13 µM | [15] 21.8 µM | [16] 58.5 µM | [17] 21.3 µM | [18] 26.5 µM | [19] 31 µM

Cc1nn(-c2ccccc2)c2nc(S)cnc12
inactive: [1] > 100 µM | [2] > 100 µM | [3] > 100 µM | [4] > 100 µM | [5] > 100 µM | [6] > 100 µM | [7] > 100 µM | [8] > 100 µM | [20] > 100 µM | [9] > 100 µM | [10] > 100 µM | [11] > 100 µM | [12] > 100 µM | [13] > 100 µM | [14] > 100 µM | [16] > 100 µM | [17] > 100 µM
